We go through two compounds from US20250108213A1, “COMPOSITIONS AND METHODS FOR ENHANCING THE EFFECT OF PLATINUM-BASED SYSTEMIC THERAPY” (NOVOCURE GMBH, priority 2023, published 2025).

“Also recorded” adds a separate entry of the source. Where two headings read alike, the source gives them in different places. A value given as a limit tells only on which side of the number the result lay.

Series [1] relates to γH2AX foci in cell nuclei. The experiment in a line: DNA damage examination by fluorescence microscopy. It is filed as cell-based, human. The protocol:
For DNA damage and cell cycle examination, the following drug concentrations were selected: For A2780—6 μM carboplatin, 1 μM olaparib, and 0.5 μM niraparib; For OVCAR-3-16 μM carboplatin, 0.5 μM olaparib, and 0.8 μM niraparib; For A2780cis—36 μM carboplatin, 10 μM olaparib, and 1.5 μM niraparib. Treated cells were fixed with 4% paraformaldehyde for 10 min, permeabilized for 20 min with 0.5% Triton X-100 in PBS, and blocked with donkey serum (PBS with 0.3% Triton X-100 and donkey serum 1:100). Cells were incubated at 4° C. overnight with anti-γH2AX antibody (Cell Signaling, Danvers, MA, USA; #9718, 1:400), followed by incubation at room temperature for 1 hr with Alexa Flour 488-conjugated secondary antibody (Jackson Immunoresearch, Cambridge, UK; #711-545-152, 1:500) and […] 4′,6-diamidino-2-phenylindole (DAPI; Sigma Aldrich, Rehovot, Israel). LSM 700 laser scanning confocal system (Zeiss, Gottingen, Germany) was utilized to obtain images, and the mean number of foci per nucleus was determined using the FIJI software with the BioVoxxel plugin.

Series [2] deals with OVCAR-3 cells. Conditions: for effect of TTFields on the drug-induced overall effect (cell count x colony formation) / effect of TTFields on the drug-induced effect, cell count: TTFields plus drug vs drug alone; for effect of TTFields on the drug-induced effect, cell count: p<0.0001; for sensitivity to drug (cell count dose response): drug alone, compared among A2780, OVCAR-3, A2780cis. The protocol:
(§1) Cells were seeded on coverslip (22 mm diameter; 20×10^3 cells/coverslip for A2780 and A2780cis; 40×10^3 cells/coverslip for OVCAR-3). After overnight incubation, the coverslips were transferred into in vitro dishes containing 2 ml of media. TTFields at a frequency of 200 kHz (and intensity of 1 V/cm RMS) were applied to the cells for 72 hr using the INOVITRO system (Novocure, Haifa, Israel).
(§2) For efficacy outcomes (cell count, overall effect, and apoptosis), various concentrations of carboplatin (MCE MedChemExpress, HY-17393), olaparib (Cayman Chemical, 10621), or niraparib (Cayman Chemical, 20842) were applied, with or without TTFields.
(§3) Cell count was examined following treatment using Cytek Northern Lights flow cytometer (Cytek Biosciences, USA).
(§4) Treated cells were harvested, re-plated in 6-well plates (500 cells/well for A2780 and A2780cis; 1000 for cells/well OVCAR-3), and grown for 7 (A2780 and A2780cis) or 21 (OVCAR-3) days. Colonies were stained with 0.5% crystal violet, quantified with ImageJ, and expressed as percentages relative to control. Overall effect was calculated by multiplying colony formation with the corresponding cell count.
(§5) The surviving fraction predicted for an additive effect between TTFields and drug was calculated per the various drug concentrations by multiplying the actual measured surviving fractions for the individual treatments one by the other (SFcalculated additive=SFTTFields×SFdrug; SF are expressed as probability). Based on the calculated values, a trendline was determined. Additivity, synergy, or antagonism was defined when the calculated additive trendline overlapped, was above, or was below the actual measured line for TTFields+drug, respectively.
(§6) For quantifying the magnitude of TTFields-drug interaction, interaction index (Ii) values were calculated by the Bliss independence method using mortality values (Mx=1−SFx). Per the various drug concentrations, mortality predicted for an additive effect between TTFields and drug (Mcalculated additive=MTTFields+Mdrug−MTTFields×Mdrug) was divided by the actual measured mortality for TTFields+drug. Additivity was determined when the 95% confidence interval (CI) overlapped 1, synergy when 95% CI<1, and antagonism when 95% CI>1. Lower Ii values were considered indicative of higher synergy levels.

Series [3] has as its system A2780 cells. The following applies: for type of TTFields-drug interaction (measured vs calculated additive curve): HRP cells; for effect of TTFields on the drug-induced overall effect (cell count x colony formation) / effect of TTFields on the drug-induced effect, cell count: TTFields plus drug vs drug alone; for effect of TTFields on the drug-induced effect, cell count: p<0.0001. The protocol: as §1, §2, §3, §4, §5, §6

A further series concerns G2/M cell cycle arrest. The experiment in a line: Cell cycle analysis (7-AAD, flow cytometer). It is filed as cell-based, human. The procedure: For DNA damage and cell cycle examination, the following drug concentrations were selected: For A2780—6 μM carboplatin, 1 μM olaparib, and 0.5 μM niraparib; For OVCAR-3-16 μM carboplatin, 0.5 μM olaparib, and 0.8 μM niraparib; For A2780cis—36 μM carboplatin, 10 μM olaparib, and 1.5 μM niraparib. Treated cells were fixed with 70% ice-cold ethanol for 30 min, pelleted, washed, and stained for 30 min at 37° C. in phosphate buffered saline (PBS) containing 1% FBS 5 μg/ml 7-AAD (BioLegend), 200 μg/ml RNase, 1 mM EDTA and 0.1% Triton X-100. Data acquisition (at 665/30 nm) and analysis were done on the Cytek Northern Lights flow cytometer and the FlowJo 10.8.1 software (BD Biosciences), respectively.
For orientation: Flow cytometry measures light scatter and fluorescence of single cells or particles in a stream.

In series [4] the test system is A2780cis cells. The experiment in a line: Cell count and overall effect (cell count x colony formation) after 72 h drug with or without TTFields. It is filed as cell-based, human. Conditions: for effect of TTFields on the drug-induced overall effect (cell count x colony formation) / effect of TTFields on the drug-induced effect, cell count: TTFields plus drug vs drug alone; for effect of TTFields on the drug-induced effect, cell count: p<0.0001; for sensitivity to drug (cell count dose response) / effect of TTFields on sensitivity to / effect of the drug / type of TTFields-drug interaction (measured vs calculated additive curve): 72 h; for sensitivity to drug (cell count dose response): compared among A2780, OVCAR-3, A2780cis; for effect of TTFields on sensitivity to / effect of the drug: platinum-resistant cell line; for effect of TTFields on sensitivity to / effect of the drug / type of TTFields-drug interaction (measured vs calculated additive curve): TTFields 200 kHz, 1 V/cm RMS; for type of TTFields-drug interaction (measured vs calculated additive curve): platinum-resistant cells. The protocol: TTFields were applied to the cells for 72 h in the absence or presence of various concentrations of carboplatin. Synergy was defined when the observed value was lower than that predicted for an additive effect (presented by the red dotted line-calculated by multiplying the observed effects for TTFields alone with that for cisplatin alone).
The Cytotoxic effect was also determined. Treated cells were counted using a flow cytometer, and cytotoxic effect was calculated relative to control cells.
Treated cells were harvested, re-plated, and grown for an additional 7-14 days. Colonies were stained (0.5% crystal violet solution), counted, and clonogenic effect was calculated relative to control. The overall effect was calculated by multiplying the cytotoxic and clonogenic effects.
TTFields application was studied. Ovarian carcinoma cells A2780cis (cisplatin resistant cells) were treated for 72 h with TTFields at an intensity of 1 V/cm RMS and a frequency of 200 kHz using the inovitro system (See FIG. 11).
TTFields were applied to the cells for 72 h in the absence or presence of various concentrations of PARPi Olaparib and Niraparib. Synergy was defined when the observed value was lower than that predicted for an additive effect (presented by the red dotted line-calculated by multiplying the observed effects for TTFields alone with that for cisplatin alone).
The cytotoxic effect was studied. Treated cells were counted using a flow cytometer, and cytotoxic effect was calculated relative to control cells.
Treated cells were harvested, re-plated, and grown for an additional 7-14 days. Colonies were stained (0.5% crystal violet solution), counted, and clonogenic effect was calculated relative to control. Overall effect was calculated by multiplying the cytotoxic and clonogenic effects.
as §1, §2, §3, §4, §5
For quantifying the magnitude of TTFields-drug interaction, interaction index (Ii) values were calculated by the Bliss independence method using mortality values (Mx=1−SFx). Per the various drug concentrations, mortality predicted for an additive effect between TTFields and drug (Mcalculated additive=MTTFields+Mdrug−MTTFields×Mdrug) was divided by the actual measured mortality for TTFields+drug.

Series [5] deals with OVCAR-3 cells. The experiment in a line: Apoptosis, Annexin V/7-AAD staining, flow cytometer. Conditions: TTFields applied with drug. The class given is cell-based, human. The procedure:
(§7) Apoptosis: Treated cells were double-stained with FITC-conjugated annexin V (AnnV) and 7-aminoactinomycin D (7AAD), and data acquisition was performed with a flow cytometer.
(§8) Treated cells were stained with FITC-conjugated Annexin V (AnnV) and 7-Aminoactinomycin D (7-AAD) using a commercial kit (BioLegend, San Diego, CA, USA), according to the manufacturer's instruction. Data acquisition and analysis were done on the Cytek Northern Lights flow cytometer

Series [6] has as its system A2780cis cells. Described as above. It is filed as cell-based, human. Conditions: TTFields applied with drug. The protocol: (§9) Apoptosis was also examined. Treated cells were double-stained with FITC-conjugated annexin V (AnnV) and 7-aminoactinomycin D (7AAD), and data acquisition was performed with a flow cytometer.
Treated cells were double-stained with FITC-conjugated annexin V (AnnV) and 7-aminoactinomycin D (7AAD), and data acquisition was performed with a flow cytometer.
as §8

Series [7] concerns A2780 cells. The description is as above. The class given is cell-based, human. Conditions: TTFields applied with drug. The protocol: as §7, §9, §8
[8] abbreviates: treatment alone, all cell lines (A2780, OVCAR-3, A2780cis), relative to control.
Where [9] appears, read: Bliss independence, TTFields plus drug.
Where [10] appears, read: TTFields 200 kHz, 1 V/cm RMS, 72 h.

For `N.N.O=C([O-])C1(C(=O)[O-])CCC1.[Pt+2]` [carboplatin], the “levels of γH2AX foci, monotherapy” value in series [1] (drug alone, OVCAR-3 cells) is “especially dramatic”; in series [1] (setting [8]), “more pronounced effect”. Moreover, the entries for the “interaction index (Ii), 95% confidence interval” value in the series with OVCAR-3 cells [2] (setting [9]), in the series on A2780 cells [3] (setting [9]) and with A2780cis cells [4] (setting [9]) were over 1, “smaller than 1” and “smaller than 1”, respectively. Moreover, the “effect of TTFields on the drug-induced overall effect (cell count x colony formation)” value with OVCAR-3 cells [2], with A2780 cells [3] and in the series with A2780cis cells [4] was “significantly elevated” throughout. Further, the “effect of TTFields on the drug-induced effect, cell count” value in the series with OVCAR-3 cells [2], with A2780 cells [3] and with A2780cis cells [4] was “significantly amplified” in each case. The “sensitivity to drug (cell count dose response)” value in the series on OVCAR-3 cells [2] (72 h) is reported as “highest sensitivity”; in the series on A2780cis cells [4] (drug alone), “lower response; also recorded: highest resistance”. Moreover, the results for the “type of TTFields-drug interaction (measured vs calculated additive curve)” value in the series on A2780 cells [3] (setting [10]) and in the series with A2780cis cells [4] were “tendency to synergism; also recorded: additive; also recorded: tendency to synergy” and “synergistic; also recorded: synergistically; also recorded: tendency to synergy”, respectively. For the same compound, the “type of TTFields-drug interaction, overall effect (cell count and clonogenic effect)” value with A2780 cells [3] (setting [10]) was “Signs of synergy”. Besides, the “type of TTFields-drug interaction, cytotoxic effect (cell count)” value in the series with A2780 cells [3] (TTFields 200 kHz, 1 V/cm RMS, 72 h, BRCA wt) is recorded as “Signs of synergy”. Moreover, the “cell cycle arrest, drug alone” value in the series with G2/M cell cycle arrest was “induced G2/M arrest”. Also, the “level of TTFields-drug synergy” value in the series on A2780cis cells [4] (A2780cis relative to A2780 cells, by Ii) is “higher levels”. The “decreased sensitivity of A2780cis cells compared with wild type A2780 cells” value in the series with A2780cis cells [4] (drug alone, titration) came to 5 fold. For the same compound, in the series on A2780cis cells [4], the “effect of TTFields on sensitivity to / effect of the drug” value is given as “increased the sensitivity”. Also, the figures for the “effect of TTFields on the apoptotic effect / apoptotic cell fraction” value in the series with OVCAR-3 cells [5], in the series on A2780cis cells [6] and in the series on A2780 cells [7] were “enhanced; also recorded: increases”, “increases” and “enhanced; also recorded: increases”, respectively.

For `NC(=O)c1cccc2cn(-c3ccc([C@@H]4CCCNC4)cc3)nc12` [niraparib], the “levels of γH2AX foci, monotherapy” value in series [1] (setting [8]) is given as “mild elevation”. In addition, the “type of TTFields-drug interaction, cytotoxic effect (cell count)” value is recorded as “additively” in the series with OVCAR-3 cells [2] and “synergistically” with A2780 cells [3]. In addition, the “type of TTFields-drug interaction (measured vs calculated additive curve)” value in the series with OVCAR-3 cells [2] (HRD cells, TTFields 200 kHz, 1 V/cm RMS, 72 h) was “additively”; in the series with A2780 cells [3] (setting [10]), “high synergy”; in the series on A2780cis cells [4], “tendency to synergy”. The “type of TTFields-drug interaction, overall effect (cell count and clonogenic effect)” value in the series with OVCAR-3 cells [2] (setting [10]) was “additive”; with A2780 cells [3] (setting [10]) it was “synergistically”. In addition, the “effect of TTFields on the drug-induced overall effect (cell count x colony formation)” value in the series on OVCAR-3 cells [2], in the series with A2780 cells [3] and in the series with A2780cis cells [4] was “significantly augmented” each time. For the same compound, the “effect of TTFields on the drug-induced effect, cell count” value with OVCAR-3 cells [2], with A2780 cells [3] and with A2780cis cells [4] was “significantly augmented” throughout. The entries for the “sensitivity to drug (cell count dose response)” value in the series with OVCAR-3 cells [2] (72 h) and in the series on A2780cis cells [4] (drug alone) were “highest sensitivity” and “highest resistance”, respectively. In addition, the “level of TTFields-drug synergy” value with A2780 cells [3] (A2780 relative to A2780cis cells, by Ii) is recorded as “higher”. In addition, in the series with G2/M cell cycle arrest, the “cell cycle arrest, drug alone” value is “induced G2/M arrest”. In addition, the “effect of TTFields on sensitivity to / effect of the drug” value with A2780cis cells [4] is “increased the sensitivity”. The results for the “effect of TTFields on the apoptotic effect / apoptotic cell fraction” value in the series with OVCAR-3 cells [5], in the series with A2780cis cells [6] and with A2780 cells [7] were “enhanced; also recorded: elevation”, “elevation” and “enhanced; also recorded: elevation”, respectively.
